Source: ChEMBL document CHEMBL4699534, “Optimizing PEG-Extended Apelin Analogues as Cardioprotective Drug Leads: Importance of the KFRR Motif and Aromatic Head Group for Improved Physiological Activity” (J Med Chem, 2020)
Non-standard residues stand in square brackets, D forms with d. Residues, ends and D or L forms follow the SMILES beside them. *: point of attachment. Phe(4-Br) = N[C@@H](Cc1ccc(Br)cc1)C(=O)O; PEG7 = NCCOCCOCCOCCOCCOCCOCCOCCC(=O)O; NMeL = CN[C@@H](CC(C)C)C(=O)O; PEG4 = NCCOCCOCCOCCOCCC(=O)O; Nle = CCCC[C@H](N)C(=O)O; X1 = COCCOCCOCCOCCC(=O)*; Aib = CC(C)(N)C(=O)O

Assays:
[1] = Half life in human plasma at 400 uM by HPLC analysis; assay type: ADME, cell-free
[2] = Half life in mouse plasma at 400 uM by HPLC analysis; assay type: ADME, cell-free
Apelin receptor [3] = molecular target: T1, Apelin receptor (Rattus norvegicus, UniProt Q9JHG3); assay: Displacement of [125I]-pyr-1-apelin-13 from EGFP-tagged wild-type rat apelin receptor expressed in CHO cell membranes by gamma counting method; parameters: species or system Cell membrane
T1 sequence (Q9JHG3 whole entry): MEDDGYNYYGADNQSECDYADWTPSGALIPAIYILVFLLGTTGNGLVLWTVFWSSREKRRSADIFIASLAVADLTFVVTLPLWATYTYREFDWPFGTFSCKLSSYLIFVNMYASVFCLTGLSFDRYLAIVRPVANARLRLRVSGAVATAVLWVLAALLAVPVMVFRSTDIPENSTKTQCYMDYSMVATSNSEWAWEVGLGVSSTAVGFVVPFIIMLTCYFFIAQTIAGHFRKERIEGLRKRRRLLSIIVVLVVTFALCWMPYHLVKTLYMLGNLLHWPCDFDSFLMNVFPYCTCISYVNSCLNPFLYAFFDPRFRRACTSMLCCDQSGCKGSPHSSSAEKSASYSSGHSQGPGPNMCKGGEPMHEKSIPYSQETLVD

Mus musculus = assay: Cardioprotective activity in C57BL/6 mouse assessed as reduction in mean arterial blood pressure at 1.4 uM/kg, iv measured after 15 mins relative to control; assay type: functional; conditions: 0.25 h
[4] = Protein binding in 55% human plasma at 100 uM incubated for 3 hrs by LC/MS detection based equilibrium dialysis; assay type: ADME, cell-free; conditions: 55% plasma, read-out: PPB (converted)
[5] = Protein binding in 55% mouse plasma at 100 uM incubated for 3 hrs by LC/MS detection based equilibrium dialysis; assay type: ADME, cell-free; conditions: 55% plasma, read-out: PPB (converted)
[6] = Lipophilicity, log D of the compound in pH 7.4 PBS by LC/MS detection based shake flask assay; assay type: physicochemical
Heart [7] = assay: Cardioprotective activity in mouse Langendorff heart perfusion and ischemia-reperfusion injury model assessed as left ventricle developed pressure at 1 uM dosed at start of reperfusion for 10 mins; assay type: functional
Heart [8] = assay: Cardioprotective activity in mouse Langendorff heart perfusion and ischemia-reperfusion injury model assessed as maximum derivative of change in systolic blood pressure over time at 1 uM dosed at start of reperfusion for 10 mins; assay type: functional
Apelin receptor [9] = molecular target: T2, Apelin receptor (Homo sapiens, UniProt P35414); assay: Activation of APJ receptor (unknown origin) expressed in Chem-5 cells assessed as stimulation of Ca2+ mobilization by Calcium 6-GF dye based fluorescence based assay; assay type: functional, cell-based
T2 sequence (P35414 whole entry): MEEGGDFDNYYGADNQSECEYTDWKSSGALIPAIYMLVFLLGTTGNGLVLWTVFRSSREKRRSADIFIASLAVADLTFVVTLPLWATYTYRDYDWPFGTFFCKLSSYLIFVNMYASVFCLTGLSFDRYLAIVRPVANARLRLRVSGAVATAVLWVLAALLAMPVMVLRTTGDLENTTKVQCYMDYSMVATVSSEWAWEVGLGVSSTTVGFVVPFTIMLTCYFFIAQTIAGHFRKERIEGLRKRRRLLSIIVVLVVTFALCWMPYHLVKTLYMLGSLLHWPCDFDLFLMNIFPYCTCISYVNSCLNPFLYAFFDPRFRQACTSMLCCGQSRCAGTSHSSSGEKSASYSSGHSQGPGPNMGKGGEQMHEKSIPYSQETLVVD

`CCCC[C@H](NC(=O)[C@@H]1CCCN1C(=O)CNC(=O)[C@H](CCCCN)NC(=O)[C@H](Cc1c[nH]cn1)NC(=O)[C@H](CO)NC(=O)[C@H](CC(C)C)N(C)C(=O)[C@H](CCCNC(=N)N)NC(=O)[C@@H]1CCCN1C(=O)[C@H](CCCNC(=N)N)NC(=O)[C@H](CCC(N)=O)NC(=O)[C@H](CCCNC(=N)N)NC(=O)[C@H](CCCNC(=N)N)NC(=O)[C@H](Cc1ccccc1)NC(=O)[C@@H](N)CCCCN)C(=O)NC(C)(C)C(=O)N[C@@H](Cc1ccc(Br)cc1)C(=O)O` (H-KFRRQRPR[NMeL]SHKGP[Nle][Aib][Phe(4-Br)]-OH) gave a half-life at 400 µM [1] of 1.2 h, a half-life at 400 µM [2] of 0.9 h and an IC50 (Apelin receptor [3]) of 0.603 nM. For the same compound, the Activity (Mus musculus) was 30 mmHg, the fraction unbound at 3 h, 100 µM [4] was 0.48 and the fraction unbound at 3 h, 100 µM [5] was 0.45. It also gave a logD [6] of -2.01, an Activity (Heart [7]) of 25 mmHg and a dP/dt max (Heart [8]) of 778 mmHg/s.
Work on `CCCC[C@H](NC(=O)[C@@H]1CCCN1C(=O)CNC(=O)[C@H](CCCCN)NC(=O)[C@H](Cc1c[nH]cn1)NC(=O)[C@H](CO)NC(=O)[C@H](CC(C)C)N(C)C(=O)[C@H](CCCNC(=N)N)NC(=O)[C@@H]1CCCN1C(=O)[C@H](CCCNC(=N)N)NC(=O)[C@H](CCC(N)=O)NC(=O)[C@H](CCCNC(=N)N)NC(=O)[C@H](CCCNC(=N)N)NC(=O)[C@H](Cc1ccccc1)NC(=O)[C@H](CCCCN)NC(=O)CCOCCOCCOCCOCCOCCOCCOCCN)C(=O)NC(C)(C)C(=O)N[C@@H](Cc1ccc(Br)cc1)C(=O)O` (H-[PEG7]KFRRQRPR[NMeL]SHKGP[Nle][Aib][Phe(4-Br)]-OH) yielded a half-life at 400 µM [1] of 3 h, an EC50 (Apelin receptor [9]) of 2.88 nM and an IC50 (Apelin receptor [3]) of 1.7 nM. For the same compound, the Activity (Mus musculus) was 35 mmHg, the fraction unbound at 3 h, 100 µM [4] was 0.21 and the fraction unbound at 3 h, 100 µM [5] was 0.31. It also gave a logD [6] of -1.82.
Work on `CSCC[C@H](NC(=O)[C@@H]1CCCN1C(=O)CNC(=O)[C@H](CCCCN)NC(=O)[C@H](Cc1c[nH]cn1)NC(=O)[C@H](CO)NC(=O)[C@H](CC(C)C)NC(=O)[C@H](CCCNC(=N)N)NC(=O)[C@@H]1CCCN1C(=O)[C@H](CCCNC(=N)N)NC(=O)[C@H](CCC(N)=O)NC(=O)[C@H](CCCNC(=N)N)NC(=O)[C@H](CCCNC(=N)N)NC(=O)[C@H](Cc1ccccc1)NC(=O)[C@@H](N)CCCCN)C(=O)N1CCCC1C(=O)N[C@@H](Cc1ccccc1)C(=O)O` (stereo partly drawn) yielded a half-life at 400 µM [1] of 0.02 h, a half-life at 400 µM [2] of 0.03 h and an IC50 (Apelin receptor [3]) of 0.0501 nM. It also gave an Activity (Mus musculus) of 17 mmHg, a fraction unbound at 3 h, 100 µM [4] of 0.43 and a fraction unbound at 3 h, 100 µM [5] of 0.49. It also gave a logD [6] of -2.57, an Activity (Heart [7]) of 30 mmHg and a dP/dt max (Heart [8]) of 1020 mmHg/s.
Compound `CCCC[C@H](NC(=O)[C@@H]1CCCN1C(=O)CNC(=O)[C@H](CCCCN)NC(=O)[C@H](Cc1c[nH]cn1)NC(=O)[C@H](CO)NC(=O)[C@H](CC(C)C)N(C)C(=O)[C@H](CCCNC(=N)N)NC(=O)[C@@H]1CCCN1C(=O)[C@H](CCCNC(=N)N)NC(=O)[C@H](CCC(N)=O)NC(=O)[C@H](CCCNC(=N)N)NC(=O)[C@H](CCCNC(=N)N)NC(=O)[C@H](Cc1ccccc1)NC(=O)[C@H](CCCCN)NC(=O)CCOCCOCCOCCOCCN)C(=O)NC(C)(C)C(=O)N[C@@H](Cc1ccc(Br)cc1)C(=O)O` (H-[PEG4]KFRRQRPR[NMeL]SHKGP[Nle][Aib][Phe(4-Br)]-OH) has a half-life at 400 µM [1] of 2 h, an EC50 (Apelin receptor [9]) of 7.76 nM and an IC50 (Apelin receptor [3]) of 6.31 nM. For the same compound, the Activity (Mus musculus) was 24 mmHg.
Compound `CCCC[C@H](NC(=O)[C@@H]1CCCN1C(=O)CNC(=O)[C@H](CCCCN)NC(=O)[C@H](Cc1c[nH]cn1)NC(=O)[C@H](CO)NC(=O)[C@H](CC(C)C)N(C)C(=O)[C@H](CCCNC(=N)N)NC(=O)[C@@H]1CCCN1C(=O)[C@H](CCCNC(=N)N)NC(=O)[C@H](CCC(N)=O)NC(=O)[C@H](CCCNC(=N)N)NC(=O)[C@H](CCCNC(=N)N)NC(=O)[C@H](Cc1ccccc1)NC(=O)[C@H](CCCCN)NC(=O)CCOCCOCCOCCOC)C(=O)NC(C)(C)C(=O)N[C@@H](Cc1ccc(Br)cc1)C(=O)O` (X1-KFRRQRPR[NMeL]SHKGP[Nle][Aib][Phe(4-Br)]-OH) has a half-life at 400 µM [1] of 2.8 h, an EC50 (Apelin receptor [9]) of 53.7 nM and an IC50 (Apelin receptor [3]) of 3.31 nM. For the same compound, the Activity (Mus musculus) was 32 mmHg.
